# Experiment: Release of fluorometholone in the rabbit eye, measured in aqueous humor
# Assay type: in vivo
# Details: measured by fluorometholone contained in the aqueous humor
# Protocol: The viscous gels that result upon administration of the aqueous suspensions of this invention to the eye have residence times in the eye ranging from about 2 to about 12 hours, e.g., from about 3 to about 6 hours. The active ingredients contained in these ophthalmically acceptable vehicles are released from the gels at rates that depend on such factors as the active ingredient itself and its physical form, the extent of drug loading and the pH of the system, as well as on any drug delivery adjuvants, such as ion exchange resins compatible with the ocular surface, which can also be present.
structure (smiles),measurement,value
CC(=O)[C@@]1(O)CC[C@H]2[C@@H]3C[C@H](C)C4=CC(=O)C=C[C@]4(C)[C@@]3(F)[C@@H](O)C[C@@]21C [fluorometholone],Release rates in the rabbit eye,in excess of four hours

# — US8501800B2, “Controlled-release ophthalmic vehicles” (Insite Vision Incorporated, priority 2009, dated 2013)
